Earlier results as cited in PMC9817006 (Journal of psychopharmacology (Oxford, England), 2022).

How the values were obtained:
rats = settings: ref Freitas et al., 2016; cited from earlier work
[1] = systemic administration; ref Rueter et al., 2006; cited from earlier work
C57BL/6J mice = settings: low and high doses, ref Akinola et al., 2019; cited from earlier work

dihydro-ß-erythroidine [DHßE]
Effect on 5IA-facilitated ICSS (in words) (rats): blocked

c1cncc(OC[C@@H]2CCN2)c1 [A-85380]
Antinociception and anti-allodynic activity (in words) [1]: showing efficacy in multiple in vivo assays of antinociception, and anti-allodynic activity after systemic administration

CN1CCC[C@H]1c1cccnc1 [nicotine]
Locomotor sensitization (in words) (C57BL/6J mice): lack of locomotor sensitization
